The source of these data is ChEMBL document CHEMBL4043287, “A Structure-Activity Relationship Study of Bitopic N6-Substituted Adenosine Derivatives as Biased Adenosine A1 Receptor Agonists” (J Med Chem, 2018).

Structures are written as SMILES. Calls of active or inactive are those of the source. No cut-off for these calls is given here.

For data set [1], the target named is T1, Adenosine receptor A1 (Homo sapiens, UniProt P30542).
T1 sequence (P30542 whole entry): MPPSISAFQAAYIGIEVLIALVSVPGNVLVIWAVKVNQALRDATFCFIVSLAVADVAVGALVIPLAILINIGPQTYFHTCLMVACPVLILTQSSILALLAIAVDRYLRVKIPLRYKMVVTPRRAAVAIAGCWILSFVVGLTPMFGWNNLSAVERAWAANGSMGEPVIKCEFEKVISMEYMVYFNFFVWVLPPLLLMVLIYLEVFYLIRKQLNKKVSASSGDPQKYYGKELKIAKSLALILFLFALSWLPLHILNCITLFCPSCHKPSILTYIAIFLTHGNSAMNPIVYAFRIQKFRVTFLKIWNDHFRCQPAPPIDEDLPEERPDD
Description: Agonist activity at human A1AR expressed in FlpIn-CHO cells assessed as inhibition of forskolin-stimulated cAMP accumulation preincubated for 10 mins followed by forskolin addition measured after 30 mins by Alphascreen assay. It counts as functional, cell-based. A general note: Cyclic AMP is a second messenger, typically raised through Gs and lowered through Gi signalling.

Another data set has as its target T2, Adenosine receptor A2b (Homo sapiens, UniProt P29275).
T2 sequence (P29275 whole entry): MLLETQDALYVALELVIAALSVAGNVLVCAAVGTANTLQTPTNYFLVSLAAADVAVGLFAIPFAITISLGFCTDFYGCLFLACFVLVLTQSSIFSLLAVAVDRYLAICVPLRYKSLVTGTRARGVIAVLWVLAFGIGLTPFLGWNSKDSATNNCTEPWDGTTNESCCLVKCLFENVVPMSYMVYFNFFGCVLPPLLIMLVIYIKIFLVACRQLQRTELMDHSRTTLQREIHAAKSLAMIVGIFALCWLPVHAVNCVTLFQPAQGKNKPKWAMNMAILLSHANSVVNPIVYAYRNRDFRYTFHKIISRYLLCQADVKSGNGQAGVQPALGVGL
Kind of data set: Agonist activity at human A2BAR expressed in FlpIn-CHO cells assessed as […] cAMP accumulation preincubated for 40 mins followed by forskolin addition measured after 30 mins by Alphascreen assay. It counts as functional, cell-based.

Data set [2] concerns the target T1, Adenosine receptor A1. Description: Agonist activity at human A1AR expressed in FlpIn-CHO cells assessed as intracellular calcium mobilization by measuring agonist transduction coefficient by Fluo-4 dye-based fluorescence assay. It counts as cell-based. Background: Calcium assays in cells follow changes in intracellular calcium, usually with a dye or a luminescent sensor.

In data set [3] the target is T1, Adenosine receptor A1. Kind of data set: Agonist activity at human A1AR expressed in FlpIn-CHO cells assessed as intracellular calcium mobilization by Fluo-4 dye-based fluorescence assay. It counts as cell-based.
The target of data set [4] is T3, Adenosine receptor A3 (Homo sapiens) (UniProt P0DMS8).
T3 sequence (whole entry): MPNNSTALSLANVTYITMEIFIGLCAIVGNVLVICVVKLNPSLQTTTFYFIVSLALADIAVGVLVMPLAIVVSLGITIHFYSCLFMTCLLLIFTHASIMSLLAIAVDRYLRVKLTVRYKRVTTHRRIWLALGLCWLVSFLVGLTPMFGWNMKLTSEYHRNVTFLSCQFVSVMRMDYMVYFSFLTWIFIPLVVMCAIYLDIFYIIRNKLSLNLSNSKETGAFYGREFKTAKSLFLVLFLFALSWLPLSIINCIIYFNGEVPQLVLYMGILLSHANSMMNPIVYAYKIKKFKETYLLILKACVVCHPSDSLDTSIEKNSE
Kind of data set: Agonist activity at human A3AR expressed in FlpIn-CHO cells assessed as inhibition of forskolin-stimulated cAMP accumulation up to 10 uM preincubated for 10 mins followed by forskolin addition measured after 30 mins by Alphascreen assay. It counts as functional, cell-based.

For data set [5], the target named is T4, Adenosine receptor A2b (Homo sapiens) (UniProt P29275).
T4 sequence (whole entry): T2 sequence (P29275 whole entry)
Description: Agonist activity at human A2BAR expressed in FlpIn-CHO cells assessed as […] cAMP accumulation preincubated for 40 mins followed by forskolin addition measured after 30 mins by Alphascreen assay relative to control. In kind it is functional, cell-based.

The next data set deals with Adenosine receptor A2a (Homo sapiens, UniProt P29274). Kind of data set: Agonist activity at human A2A-AR expressed in FlpIn-CHO cells assessed as inhibition of forskolin-stimulated cAMP accumulation preincubated for 40 mins followed by forskolin addition measured after 30 mins by Alphascreen assay.
Data set [6] deals with T1, Adenosine receptor A1. Kind of data set: Agonist activity at human A1AR expressed in FlpIn-CHO cells assessed as intracellular calcium mobilization by Fluo-4 dye-based fluorescence assay relative to control. It counts as cell-based.

Chain of Adenosine receptor A2a (P29274 whole entry): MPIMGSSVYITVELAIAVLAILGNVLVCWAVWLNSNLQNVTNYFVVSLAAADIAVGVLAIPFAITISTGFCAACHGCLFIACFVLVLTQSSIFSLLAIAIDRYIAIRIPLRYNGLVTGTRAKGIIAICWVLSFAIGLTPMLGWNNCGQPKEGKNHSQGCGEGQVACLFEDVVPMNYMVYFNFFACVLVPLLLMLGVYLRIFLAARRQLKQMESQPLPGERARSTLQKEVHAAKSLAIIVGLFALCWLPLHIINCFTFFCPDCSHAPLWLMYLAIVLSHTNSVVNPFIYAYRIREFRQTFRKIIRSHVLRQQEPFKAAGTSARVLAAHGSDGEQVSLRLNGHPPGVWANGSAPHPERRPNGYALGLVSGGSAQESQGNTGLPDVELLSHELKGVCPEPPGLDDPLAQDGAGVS

`Nc1nc(NCCCCCCNC(=O)c2ccc(-c3sc(N)c(C(=O)c4ccccc4)c3-c3cccc(C(F)(F)F)c3)cc2)c2ncn([C@@H]3O[C@H](CO)[C@@H](O)[C@H]3O)c2n1`: the 50% effective concentration (EC50) was 1350 nM on Adenosine receptor A1 [1], 97.7 nM on Adenosine receptor A2b, 257 nM at Adenosine receptor A1 [3] and 759 nM at Adenosine receptor A2a. Moreover, the “log(activity)” value at Adenosine receptor A1 [2] is recorded as 6.15. Moreover, the inhibition entry in data set [4] was “inactive”. Besides, the Emax in data set [5] was 43%; at Adenosine receptor A1 [6], 34%.

Broadly, the EC50 is the concentration at which the effect is half-maximal. A word on the Emax: it is the maximal effect, on the per cent scale that the assay sets.
